No end group written: not given here.
Legend:
[1] = molecular target: T1, hDPP4 (Homo sapiens, UniProt P27487); test: In vitro protease assay by mass spectrometry: cleavage of synthetic GLP-1 N-terminal peptides by hDPP4 over time; assay type: in vitro ADME; conditions: hDPP4 1 µg in 100 µl, peptide 1 pmol/µl, 21 °C, LC-MS, Fig. 4A; for product formation upon digestion with hDPP4 (in words): 30-120 min, three technical replicates
T1 construct: purchased Abcam ab79138
Protocol: Synthetic peptides representing either wild-type or mutated GLP-1 were purchased from Thermo Fisher Scientific and their cleavage by DPP4 was measured over time. Briefly, the lyophilized peptides were dissolved in TBS buffer supplemented with 2 mM TCEP to obtain a stock solution with a final concentration of 0.1 nmol/µl. 1ug of DPP4 and each peptide at a final concentration of 1 pmol/µl were used in reactions at a final volume of 100 µl. To distinguish the products, the four peptides were pooled into two groups. One group contained GLP-1 wt (HAE ([…])) & GLP-1 H1D, E3P (DAP ([…])) and the other group GLP-1 H1D (DAE ([…])) & GLP-1 E3P (HAP ([…])). The assay was performed at 21 °C, aliquots (20 µl) were taken out at the indicated times and mixed with 180 µl of 0.1% trifluoroacetic acid, 2 mM TCEP, 2% acetonitrile in water to stop the reaction.
The peptides were analyzed by capillary liquid chromatography tandem mass spectrometry (LC-MS) using an Orbitrap Fusion LUMOS, a VanquishNeo-nLC, and a 75umx15cm EasyC18 column kept at 45 °C and mounted on a easy source (Thermo Fisher Scientific). Peptides were loaded on a 0.3 × 5 mm C18 trap using a back flash method for elution. Peptides were separated with a gradient of 0–0.2 min 2–6%B in A, 0.2–4.2 min 6–21%, 4.2–6.2 min 21–30%, 6.2–6.7 min 30–36%, 6.7–7.2 min 36–45%, 7.2–7.5 min 45%-100%, 7.5-12 min 100%. A: 0.1% FA in H2O; B: 0.1% FA, 80% MeCN in H2O, at room temperature and the flow rate during the gradient was 200 nl/min and for the last 4.4 min 350 nl/min. The data were acquired using 120,000 resolution for the peptide measurements in the Orbitrap and a top T (1.5 s) method with HCD fragmentation for each precursor and fragment measurement in the ion trap following the manufacturer guidelines (Thermo Scientific).

[2] = system: GLP-1 receptor; conditions: compared with GLP-1(7-37); ref Mentlein et al, 1993; Muller et al, 2019; cited from earlier work
Text: To achieve clinical utility, GLP ...

[3] = molecular target: C. elegans DPF-3 (DPP8/9-orthologue), full-length, recombinant (C. elegans); test: cryo-EM structure; single particle cryo-EM of full-length DPF-3 alone (apo), ~0.3 mg/ml and 2.5% glycerol, grids blotted at 4 °C; homodimer

T1 sequence (P27487 whole entry): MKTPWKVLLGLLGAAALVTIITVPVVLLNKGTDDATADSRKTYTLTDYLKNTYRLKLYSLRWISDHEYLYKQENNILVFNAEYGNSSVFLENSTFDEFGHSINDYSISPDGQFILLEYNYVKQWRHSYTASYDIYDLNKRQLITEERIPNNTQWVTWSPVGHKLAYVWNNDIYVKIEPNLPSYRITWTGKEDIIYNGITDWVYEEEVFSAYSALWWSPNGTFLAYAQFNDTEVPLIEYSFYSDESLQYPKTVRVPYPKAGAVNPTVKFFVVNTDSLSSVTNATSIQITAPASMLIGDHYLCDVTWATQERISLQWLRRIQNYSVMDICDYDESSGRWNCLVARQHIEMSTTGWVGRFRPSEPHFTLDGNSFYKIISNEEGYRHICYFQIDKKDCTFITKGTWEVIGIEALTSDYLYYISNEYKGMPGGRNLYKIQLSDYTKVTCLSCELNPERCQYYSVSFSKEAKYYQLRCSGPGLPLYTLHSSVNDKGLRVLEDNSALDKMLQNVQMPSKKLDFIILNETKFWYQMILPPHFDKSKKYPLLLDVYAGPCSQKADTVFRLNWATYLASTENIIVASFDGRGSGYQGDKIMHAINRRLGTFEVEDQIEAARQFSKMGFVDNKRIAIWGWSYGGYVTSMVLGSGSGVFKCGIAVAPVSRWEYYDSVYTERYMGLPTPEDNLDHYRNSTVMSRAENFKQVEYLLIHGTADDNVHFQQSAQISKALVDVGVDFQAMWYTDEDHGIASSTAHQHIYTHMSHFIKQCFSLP

product formation upon digestion with hDPP4 (in words) [1] | Substance | further results
completely abrogated product formation | HAPGTFTSDVSR [HAP] | –
completely abrogated product formation | DAPGTFTSDVSR [DAP] | –
– | GLP-1(9-37): DPP4-processed GLP-1 peptide (EGTFTSDVSSYLEGQAAKEFIAWLVKGRG; Glucagon-like peptide 1; UniProt P01275 100-128, looked up, fragment) | affinity to its receptor (in words) [2]: reduced affinity
– | C. elegans DPF-3 (DPP8/9-orthologue), full-length, recombinant (enzyme) | stoichiometry N [3]: 2
– | HAEGTFTSDVSR [HAE, reference compound] | time within which product formation was essentially complete [1]: ≤ 30 min

Substance | product formation upon digestion with hDPP4 (in words) [1] | further results
DAEGTFTSDVSR [DAE] | greatly decreased product levels at all time points and continued product accumulation over 120 min | –
